From patent US20250018014A1, “METHOD FOR TREATING AND/OR PREVENTING REGNASE-1-RELATED DISEASE” (OSAKA UNIVERSITY, priority 2018, published 2025)
Residues, ends and D or L forms follow the SMILES beside them.

Columns and labels:
[1] = biological target: T1, FL_Reg1 (full-length human Regnase-1) phosphorylation by TBK1 (Homo sapiens, UniProt Q5D1E8); test: Regnase-1 phosphorylation inhibition by compounds (AlphaScreen), TBK1, full-length Regnase-1; type: biochemical; details: Table 13; phosphorylation by TBK1; read-out: Phosphorylation inhibition FL_Reg1, 50% inhibition concentration (TBK1)
T1 construct: made in house; host or cells: Expi293 cells
T1 sequence (Q5D1E8 1-599): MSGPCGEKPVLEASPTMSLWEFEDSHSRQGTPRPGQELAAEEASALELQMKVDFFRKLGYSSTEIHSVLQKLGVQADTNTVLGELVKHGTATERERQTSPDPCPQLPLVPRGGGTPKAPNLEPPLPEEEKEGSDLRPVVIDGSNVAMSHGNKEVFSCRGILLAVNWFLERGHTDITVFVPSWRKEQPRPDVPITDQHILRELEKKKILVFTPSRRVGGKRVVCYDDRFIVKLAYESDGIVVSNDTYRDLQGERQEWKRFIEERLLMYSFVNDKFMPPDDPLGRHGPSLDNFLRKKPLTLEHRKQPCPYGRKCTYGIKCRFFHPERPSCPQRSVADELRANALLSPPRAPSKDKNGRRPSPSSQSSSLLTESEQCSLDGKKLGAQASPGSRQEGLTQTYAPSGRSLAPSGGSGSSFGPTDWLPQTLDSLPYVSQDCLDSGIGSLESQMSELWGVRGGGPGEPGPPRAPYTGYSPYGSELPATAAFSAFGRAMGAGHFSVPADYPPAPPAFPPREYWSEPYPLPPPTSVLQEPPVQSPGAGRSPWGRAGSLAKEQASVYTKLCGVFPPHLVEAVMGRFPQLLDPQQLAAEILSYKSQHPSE
Source text: (§1) The full-length sequence of human Regnase-1 (UniProt ID: Q5D1E8) was used to prepare a construct having a FLAG tag on the N-terminal side and a recognition sequence for biotin ligase BirA on the C-terminal side (FL_Reg1) as a target protein. The above-mentioned Regnase-1 was expressed in mammalian Expi293 cells, purified with FLAG M2 agarose, and isolated by gel filtration chromatography. When biotinylation was required, methods from nonpatent documents (BMC biotechnology, 2008,8,41; and Protein Science, 1999,8,921-929) were used. […]
(§2) Using Kinase assay buffer III (manufactured by SignalChem) supplemented with 2 mM DTT, 100 μM sodium vanadate, and 2 mM manganese chloride, kinase (IKKβ (manufactured by SignalChem) or TBK1 (manufactured by SignalChem)) and Regnase-1 were reacted in the presence of 10 μM ATP at room temperature for 2 hours to perform a phosphorylation reaction.
(§3) Phosphorylated Regnase-1 was detected by the AlphaScreen system. After each of the above-mentioned phosphorylated Regnase-1 antibodies was added and reacted at room temperature for one hour, anti-FLAG AlphaLISA Acceptor Beads (manufactured by PerkinElmer) and Protein A AlphaScreen Donor Beads (manufactured by PerkinElmer) were added, and EnVision (manufactured by PerkinElmer) was used to measure the excited luminescence. As a result, phosphorylated Regnase-1 produced by the phosphorylation reaction by kinase was specifically detected, and signals were confirmed to be enhanced in a manner dependent on Regnase-1 and kinase concentrations (FIG. 24).
(§4) After mixing 2 nM of the above-mentioned Regnase-1 and the compound, phosphorylated Regnase-1 produced by the phosphorylation reaction was detected by the AlphaScreen system. As the results, the inhibition rate was calculated from the signals obtained when adding the compound at each concentration, by defining the signal obtained with Regnase-1 alone to be 100% inhibition rate, and the signal obtained when the same amount of solvent (DMSO) is added in place of the compound as 0% inhibition rate. The 50% inhibition concentration (μM) was calculated from the obtained dose response curve (Table 11).

[2] = biological target: T2, FL_Reg1 (full-length human Regnase-1) phosphorylation by IKKβ (Homo sapiens, UniProt Q5D1E8); test: Regnase-1 phosphorylation inhibition by compounds (AlphaScreen), IKKβ, full-length Regnase-1; type: biochemical; details: Table 14; phosphorylation by IKKβ; read-out: Phosphorylation inhibition FL_Reg1, 50% inhibition concentration (IKKβ)
T2 construct: made in house; host or cells: Expi293 cells
T2 sequence (Q5D1E8 1-599): T1 sequence (Q5D1E8 1-599)
Source text: as §1, §2, §3, §4

[3] = biological target: T3, binding between TBK1 and full-length Regnase-1 (FL_Reg1) (Homo sapiens, UniProt Q5D1E8); test: Inhibition of kinase-Regnase-1 binding by the compounds (AlphaScreen), TBK1; details: Table 13; binding between TBK1 and Regnase-1; read-out: Binding inhibition FL_Reg1, 50% inhibition concentration (TBK1)
T3 construct: made in house; host or cells: Expi293 cells
T3 sequence (Q5D1E8 1-599): T1 sequence (Q5D1E8 1-599)
Experimental: (§5) As a target protein, a construct having a FLAG tag on the N-terminal side and a recognition sequence for biotin ligase BirA on the C-terminal side of the full-length sequence of human Regnase-1 (UniProt ID: Q5D1E8) was prepared (FL_Reg1). The above-mentioned Regnase-1 was expressed in mammalian Expi293 cells, purified with FLAG M2 agarose, and isolated by gel filtration chromatography. When biotinylation was required, methods from nonpatent documents (BMC biotechnology, 2008,8,41; and Protein Science, 1999,8,921-929) were used.
(§6) After mixing 2.5 nM of the above-mentioned Regnase-1 and the compound, 2.5 nM of IKKβ or TBK1 was added and reacted at room temperature for two hours. Then, Anti FLAG AlphaLISA Acceptor Beads (manufactured by PerkinElmer) and Glutathione-coated AlphaScreen Donor Beads (manufactured by PerkinElmer) were added, and excited luminescence was measured using En Vision (manufactured by PerkinElmer). As the results, the inhibition rate from the signals obtained when adding the compound at each concentration were calculated, by defining the signal obtained with Regnase-1 alone to be 100% inhibition rate, and the signal obtained when the same amount of solvent (DMSO) is added in place of the compound as 0% inhibition rate. The 50% inhibition concentration (μM) was calculated from the obtained dose response curve (Table 12).

[4] = biological target: T4, binding between IKKβ and full-length Regnase-1 (FL_Reg1) (Homo sapiens, UniProt Q5D1E8); test: Inhibition of kinase-Regnase-1 binding by the compounds (AlphaScreen), IKKβ; details: Table 14; binding between IKKβ and Regnase-1; read-out: Binding inhibition FL_Reg1, 50% inhibition concentration (IKKβ)
T4 construct: made in house; host or cells: Expi293 cells
T4 sequence (Q5D1E8 1-599): T1 sequence (Q5D1E8 1-599)
Experimental: as §5, §6

[5] = biological target: T5, ΔCTD_Reg1 (amino acids 1 to 546 of human Regnase-1) phosphorylation by IKKβ (Homo sapiens, UniProt Q5D1E8); test: Regnase-1 phosphorylation inhibition by compounds (AlphaScreen), IKKβ, CTD-deficient Regnase-1; type: biochemical; details: Table 14; phosphorylation by IKKβ; read-out: Phosphorylation inhibition ΔCTD_Reg1, 50% inhibition concentration (IKKβ)
T5 construct: made in house; host or cells: Expi293 cells
T5 sequence (Q5D1E8 1-546): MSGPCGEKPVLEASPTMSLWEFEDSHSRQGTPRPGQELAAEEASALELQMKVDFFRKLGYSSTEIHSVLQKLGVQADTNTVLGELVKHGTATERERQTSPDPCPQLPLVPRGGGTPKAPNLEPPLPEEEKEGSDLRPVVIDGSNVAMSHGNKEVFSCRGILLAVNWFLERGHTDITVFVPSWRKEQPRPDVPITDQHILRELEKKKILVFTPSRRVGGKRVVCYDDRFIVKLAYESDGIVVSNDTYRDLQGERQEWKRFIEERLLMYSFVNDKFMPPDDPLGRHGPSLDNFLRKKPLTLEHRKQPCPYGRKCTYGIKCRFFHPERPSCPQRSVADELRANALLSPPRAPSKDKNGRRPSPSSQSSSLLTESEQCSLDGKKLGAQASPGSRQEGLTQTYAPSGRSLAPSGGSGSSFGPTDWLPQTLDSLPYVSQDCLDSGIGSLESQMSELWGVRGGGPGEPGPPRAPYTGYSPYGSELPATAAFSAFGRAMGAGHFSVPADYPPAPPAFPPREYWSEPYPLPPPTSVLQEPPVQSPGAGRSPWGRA
Experimental: Among the full-length human Regnase-1 sequence, the 1st to 546th amino acid sequence was prepared and made into a construct having a FLAG tag on the N-terminal side and a biotin ligase BirA recognition sequence on the C-terminal side (herein, a Regnase-1 lacking the C-terminal domain of Regnase-1 (amino acids 547 to 599 in the case of SEQ ID NO: 2) is referred to as “ΔCTD_Reg1”. “ΔCTD_Reg1” is different from “Regnase-1ΔCTD”, which is a C-terminal domain deletion variant resulting from a frameshift mutation caused by a 1 bp deletion at codon 517, as prepared in Example 13). In addition, the sequence from amino acids 301 to 599 of the full-length human Regnase-1 sequence was designated as C-terminal Regnase-1, and a construct having a FLAG tag on the N-terminal side and a recognition sequence for biotin ligase BirA on the C-terminal side was prepared (Reg1_301-599). The above-mentioned Regnase-1 was expressed in mammalian Expi293 cells, purified with FLAG M2 agarose, and isolated by gel filtration chromatography. When biotinylation was required, methods of nonpatent documents (BMC biotechnology, 2008,8,41; and Protein Science, 1999,8,921-929) were used.
as §2, §3, §4

SMILES	IC50 [1]	IC50 [2]	IC50 [3]	IC50 [4]	IC50 [5]
CC[C@H](C)[C@@H]1NC(=O)[C@H](Cc2c[nH]c3ccccc23)NC(=O)[C@H](C)N(C)C(=O)C[C@@H](C(=O)N2CCCC2)NC(=O)[C@H](CCC(=O)O)NC(=O)[C@H](CC(N)=O)NC(=O)[C@H](Cc2c[nH]c3ccccc23)NC(=O)[C@H](Cc2ccccc2)NC(=O)[C@H](CC(=O)O)NC(=O)[C@H](Cc2c[nH]c3ccccc23)NC1=O [PP24] (HELM PEPTIDE1{[meA].W.I.W.D.F.W.N.E.D.[C1CCN([*:1])C1]}$PEPTIDE1,PEPTIDE1,1:R1-10:R3$$$V2.0)	35.7 µM	5.3 µM	7.7 µM	8.8 µM	–
CC[C@H](C)[C@@H]1NC(=O)[C@H](CCCCN)NC(=O)[C@H](Cc2ccc(O)cc2)NC(=O)[C@H](Cc2c[nH]c3ccccc23)NC(=O)[C@H](CO)NC(=O)[C@H](CO)NC(=O)[C@H](Cc2c[nH]cn2)NC(=O)CNC(=O)[C@H](Cc2ccc(O)cc2)NC(=O)[C@H]([C@@H](C)O)NC(=O)[C@@H](C)N(C)C(=O)C[C@@H](C(=O)N2CCCC2)NC(=O)[C@H](Cc2c[nH]c3ccccc23)NC1=O [PP9] (HELM PEPTIDE1{[C[C@H](C(=O)[*:2])N(C)[*:1]].T.Y.G.H.S.S.W.Y.K.I.W.D.[C1CCN([*:1])C1]}$PEPTIDE1,PEPTIDE1,1:R1-13:R3$$$V2.0)	4.2 µM	2.7 µM	8.3 µM	10.6 µM	–
C[C@@H]1C(=O)N[C@@H](CCC(=O)O)C(=O)N[C@@H](CC(=O)O)C(=O)N[C@@H]([C@@H](C)O)C(=O)N2CCC[C@H]2C(=O)N[C@@H](CCC(=O)O)C(=O)N[C@@H](CC(=O)O)C(=O)N[C@@H](CC(=O)O)C(=O)N[C@@H](Cc2c[nH]cn2)C(=O)N[C@H](C(=O)N2CCCC2)CC(=O)N1C [PP25] (HELM PEPTIDE1{[C[C@H](C(=O)[*:2])N(C)[*:1]].E.D.T.P.E.D.D.H.D.[C1CCN([*:1])C1]}$PEPTIDE1,PEPTIDE1,1:R1-10:R3$$$V2.0)	18.9 µM	27 µM	13.1 µM	> 62.1 µM	47.7 µM
